{"source": "patent US8729056B2", "about": "“Preventive and/or therapeutic agent of hand-foot syndrome” (Ono Pharmaceutical Co., Ltd., priority 2010, dated 2014)", "key": {"[1]": {"details": "compared with tolterodine; Pharmacology and Toxicology Vol. 81, 1997; cited from earlier work"}, "[2]": {"details": "WO1999/58478; cited from earlier work"}, "[3]": {"system": "Hand-Foot Syndrome", "details": "patients with highest Hand-Foot Syndrome grade of 3; on average; Phase 2 clinical study in Japan; cited from earlier work"}, "[4]": {"details": "sweat from patients with Hand-Foot Syndrome administered the drug; cited from earlier work"}, "[5]": {"system": "Hand-Foot Syndrome caused by sorafenib tosilate administration", "experiment": "Cases 3-6: effect of anticholinergic drugs on Hand-Foot Syndrome caused by sorafenib tosilate in kidney cancer patients", "assay_type": "in vivo, human", "excerpt": "(§1) In the present invention, the preventive and/or treatment effect of the anticholinergic drug against Hand-Foot Syndrome can be evaluated, for example, by the criteria of Hand-Foot Syndrome in Table 1, Table 2, and Table 3 as shown below. Table 1 is the criteria proposed by Blum, and appeared on page 485-493 in volume 17 of Journal Clinical Oncology published in 1999. Grade 0 is not referred to in this table, but it is understood as grade 0 if no symptom is observed. Table 2 is the National Cancer Institute-Common Toxicity Criteria Version 2.0 (NCI-CTC v2.0), and Table 3 is the National Cancer Institute-Common Terminology Criteria for Adverse Events Version 3.0 (NCI-CTCAE v3.0). Grade 0 is also not referred to in Table 3, but it is understood as grade 0 if no symptom is observed.\nWe examined the effect of imidafenacin in a patient with kidney cancer who developed Hand-Foot Syndrome caused by sorafenib tosilate administration (sorafenib 800 mg/day).\nWe examined the effect of imidafenacin in a patient with kidney cancer who developed Hand-Foot Syndrome caused by sorafenib tosilate administration.\nFrom this point, Imidafenacin 0.1 mg was orally administered to the patient twice a day in addition to the urea ointment.\nWe examined the effect of solifenacin succinate in a patient with kidney cancer who developed Hand-Foot Syndrome caused by sorafenib tosilate administration (sorafenib 800 mg/day).\nWe examined the effect of tolterodine tartrate in a patient with kidney cancer who developed Hand-Foot Syndrome caused by sorafenib tosilate administration."}, "[6]": {"system": "Hand-Foot Syndrome caused by sunitinib malate administration", "experiment": "Case 2: effect of imidafenacin on Hand-Foot Syndrome caused by sunitinib malate in a kidney cancer patient", "assay_type": "in vivo, human", "details": "imidafenacin combined with urea ointment, heparinoid ointment and clobetasol propionate ointment, after eight days of such treatment", "excerpt": "as §1"}}}
{"smiles": "Cc1nc(-c2ccccc2)nc(SCc2ccc(Cl)cc2)c1CO", "note": "[5-hydroxymethyl derivative]", "values": [{"measurement": "anticholinergic activity", "setting": "[1]", "value": "equivalent to tolterodine"}]}
{"smiles": "CC(C)C(=O)Oc1ccc(CO)cc1[C@H](CCN(C(C)C)C(C)C)c1ccccc1", "note": "[Fesoterodine, 2-[(1R)-3-(dipropan-2-ylamino)-1-phenylpropyl]-4-(hydroxymethyl)phenyl 2-methylpropanoate]", "values": [{"measurement": "metabolism after oral administration", "setting": "[2]", "value": "rapidly is metabolized to the 5-hydroxymethyl derivative"}]}
{"smiles": "CCCCCOC(=O)Nc1nc(=O)n([C@@H]2O[C@H](C)[C@@H](O)[C@H]2O)cc1F", "note": "[capecitabine]", "values": [{"measurement": "period for recovery of Hand-Foot Syndrome after interruption", "setting": "[3]", "value": "about two to three"}]}
{"smiles": "COc1cccc2c1C(=O)c1c(O)c3c(c(O)c1C2=O)C[C@@](O)(C(=O)CO)C[C@@H]3O[C@H]1C[C@H](N)[C@H](O)[C@H](C)O1", "note": "[doxorubicin]", "values": [{"measurement": "drug substance in sweat", "setting": "[4]", "value": "detected"}]}
{"smiles": "Cc1nccn1CCC(C(N)=O)(c1ccccc1)c1ccccc1", "note": "[imidafenacin, 4-(2-Methyl-1H-imidazole-1-yl)-2,2-diphenylbutanamide]", "values": [{"measurement": "recurrence of Hand-Foot Syndrome", "setting": "[5]; case 3, after full recovery, continuous administration of imidafenacin and the moisturizing agent", "value": "prevented"}, {"measurement": "recovery from Hand-Foot Syndrome", "setting": "[5]; case 3, imidafenacin continued in combination with heparinoid cream, after 22 days", "value": "full recovery"}, {"measurement": "recovery from Hand-Foot Syndrome", "setting": "[6]", "value": "full recovery"}]}
{"smiles": "Cc1ncc(CO)c(CO)c1O.Cl", "note": "[pyridoxine hydrochloride]", "values": [{"measurement": "change of Hand-Foot Syndrome", "setting": "[5]; case 6, grade 3, urea ointment in addition to pyridoxine hydrochloride, sorafenib 800 mg/day, without tolterodine tartrate", "value": "no improvements"}]}
{"smiles": "O=C(O[C@H]1CN2CCC1CC2)N1CCc2ccccc2[C@@H]1c1ccccc1", "note": "[solifenacin succinate, (3R)-1-Azabicyclo[2.2.2]oct-3-yl(1S)-1-phenyl-3,4-dihydroisoquinoline-2(1H)-carboxylate]", "values": [{"measurement": "recurrence of Hand-Foot Syndrome", "setting": "[5]; case 5, continuous administration of solifenacin succinate after full recovery", "value": "prevented"}, {"measurement": "recovery from Hand-Foot Syndrome", "setting": "[5]; case 5, solifenacin succinate 5 mg orally once a day, started at grade 2, 28 days after beginning", "value": "full recovery"}]}
{"smiles": "CNC(=O)c1cc(Oc2ccc(NC(=O)Nc3ccc(Cl)c(C(F)(F)F)c3)cc2)ccn1", "note": "[sorafenib tosilate]", "values": [{"measurement": "drug substance in sweat", "setting": "[4]", "value": "not detected"}]}
